Consider 2 molecules from US11078164B1, “PTEN binding compounds, formulations, and uses thereof” (University of South Florida, priority 2017, dated 2021).

“Also recorded” adds a separate entry of the source.

What all share (assay type): cell-based
One assay deals with p-AKT (Ser473). In words: Immunoblot of p-AKT (Ser473) in treated A549 cells. The note with it: 6 hours; for expression of p-AKT (Ser473), immunoblot: 40 μM, n=3; for decrease in phosphorylated, active form of AKT (pAKT-Ser473): about 40 μM. The procedure: (§1) PTEN antagonizes PI3K/AKT/S6K pathway activation via its lipid phosphatase function (Stambolic et al., 1998, Cell, October 2; 95(1):29-39, Sun H., et al., 1999, Proc Natl Acad Sci USA. 1999 May 25; 96(11):6199-204 and Song, M. S. et al., 2012, Molecular Cell Biology 13, 283-296). A549 lung adenocarcinoma cells were treated with either γ-AAPeptide #43 or #9 for 6 hours to determine the activity of PI3K/AKT/S6K downstream pathway effectors. There was about a 30 percent and about 70 decrease in the phosphorylated, active form of AKT (pAKT-Ser473) upon treatment with 40 μM γ-AAPeptide #43 (FIG. 2A) or about 40 μM γ-AAPeptide #9 (FIG. 2B) respectively. […] However, direct allosteric effects of these compounds on the structure and catalytic function of the PTEN enzyme activity remains highly plausible.
(§2) Protein Isolation and Immuno-blotting. For treatment with γ-AAPeptides, A549 cells were grown to about 50-60% confluency in 6-well plates, treated with indicated amount of γ-AAPeptide and allowed to incubate for 6 hours at about 5% CO2 and 37° C. After about 6 hours, media was aspirated and cells were lysed in ice cold IP Lysis Buffer (25 mM Tris-HCl pH 7.4, about 150 mM NaCl, about 1% NP-40, about 1 mM EDTA, about 5% glycerol) supplemented with about 100× protease inhibitor cocktail (Sigma Aldrich, St. Louis, Mo.), phosphatase inhibitor cocktail (final concentration about 10 mM sodium azide, about 10 mM NaF, about 4 mM sodium orthovanadate, about 10 mM sodium-molybdate dehydrate, about 4 mM sodium-tartrate dibasic dehydrate, about 5 mM EDTA disodium dehydrate, about 2 mM imidazole), about 1 mM DTT and about 1 mM PMSF. Samples were sonicated at about 10% amplitude on a digital sonifier (Branson Ultrasonics, Dabury, Conn.), centrifuged at about 14,000 rpm for about 10 minutes and the supernatant was collected. Protein concentration was determined using Bradford Dye Reagent (BioRad, Hercules, Calif.). The remaining supernatant was boiled in about 100 μL of 2× Laemmli Buffer containing about 5% β-mercaptoethanol (Sigma Aldrich, St. Louis, Mo.) and subjected to SDS-PAGE gel analysis, followed by immunoblotting. About 20 μg of total proteins from A549 cell extract were separated on a about 12% SDS-PAGE gel and electro-blotted to nitrocellulose membranes (about 0.45 μm; GE Healthcare, Pittsburgh, Pa.). Blots were blocked with about 5% nonfat dry milk or bovine serum albumin in TBST buffer (about 10 mM Tris, pH about 8, about 150 mM NaCl, about 0.1% Tween 20) and incubated with indicated primary antibodies (Table 1). Peroxidase conjugated mouse or rabbit secondary antibodies were used at dilution of about 1:10,000 (Jackson ImmunoResearch, West Grove, Pa.). […]

In the next assay the test system is p-P70 S6K (Thr389). In words: Immunoblot of p-P70 S6K (Thr389) in treated A549 cells. The settings on record: 40 μM, 6 hours; for expression of p-P70 S6K (Thr389), immunoblot: n=3. The procedure:
as §1, §2
(In general: In western blotting, separated proteins are transferred to a membrane and probed.)

Assay [1] concerns PTEN C-terminus (C-tail) cluster (Ser380, Thr382, Thr383, Ser385). Put plainly: Immunoblot of PTEN C-tail phosphorylation in treated A549 cells. The note with it: about 40 μM. As for the experimental part:
as §1
Protein Isolation and Immuno-blotting. For treatment with γ-AAPeptides, A549 cells were grown to about 50-60% confluency in 6-well plates, treated with indicated amount of γ-AAPeptide and allowed to incubate for 6 hours at about 5% CO2 and 37° C. […] Protein concentration was determined using Bradford Dye Reagent (BioRad, Hercules, Calif.). […]

In assay [2] the test system is A549 cells. In words: Cell proliferation assay (Cell Counting Kit-8). The settings on record: 24 hours treatment; 9000 cells/well; n=6. As for the experimental part:
Proliferation Assays. Cell proliferation studies were performed using the Cell Counting Kit-8 (Dojindo Molecular Technologies, Rockville, Md.). A549 cells were plated in a 96-well plate with a cell density of about 9000 cells/well and cultured in F12K medium as described above. Cells were treated with indicated amount of γ-AAPeptide diluted in F12K media for 24 hours. After 24 hours, final cell numbers were assessed as a function of absorbance at 450 nm of reduced WST-(2-(2-methoxy-4-nitrophenyl)-3-(4-nitrophenyl)-5-(2,4-disulfophenyl)-2H-tetrazolium, monosodium salt).
(In general: Tetrazolium dyes change colour on reduction, which living cells bring about.)

Assay [3] deals with A549 cells. Put plainly: ECIS migration / wound closure assay. The note with it: for wound closure efficiency (continuous impedance sensing): A549 cells, 12 hours prior to wounding, vs control cells; for cell migration (ECIS): A549 lung cancer cells. The procedure: Migration Assay. Migration assay was performed on the ECIS machine (Name, Address). Briefly, A549 cells were grown on electric cell substrate impedance sensing 8-well plate arrays (8W1E; Applied Biophysics, Troy, N.Y.) in F12K media as described above. Confluent cells were treated with media containing γ-AAPeptide at desired concentration for about 12 hours prior to wounding. Cells were wounded using an elevated field pulse of about […] at about 32,000 Hz applied for about 20 seconds, producing a uniform circular lesion of about […] in size, and wound closure was tracked until healing. The impedance (Z) was measured at about 32000 Hz, normalized to its value at the initiation of data acquisition, and plotted as a function of time. Assays were performed in triplicate and reported as mean±S.E. unless stated otherwise (p value of ≤0.05 was considered to be significant).

The test system of assay [4] is A549 cells. In words: Flow cytometry cell cycle analysis. The settings on record: for cell cycle arrest: 24 hour treatment, vs vehicle treated cells. The procedure: Flow Cytometry Assay for Cell Cycle Analysis. Cell cycle analysis was performed on A549 cells treated with indicated amount of γ-AAPeptide at about 50-60% confluency for about 24 hours. After about 24 hours of indicated γ-AAPeptide treatment, cells were trypsinized and centrifuged at about 2,000 rpm for about 10 minutes. Media and trypsin were aspirated and cells were washed twice with PBS and spun at about 2,000 rpm for about 10 minutes at about 4° C. after each wash. Cells were then stained with trypan blue (Thermo Fisher Scientific, Waltham, Mass.) and counted using a hemocytometer. Cells were resuspended in Phosphate Buffered Saline (PBS) at a density of about 2×10^6 cells/mL. 1 mL of cells was fixed in about 3 mL ice cold absolute ethanol for about 1 hour at about 4° C. After fixing, cells were washed twice with PBS and spun at about 3,000 rpm for about 10 minutes at about 4° C. after each wash. About 1 mL of Propidium Iodide (P1) staining solution (about 3.8 mM sodium citrate, about 40 μg/mL PI and PBS to volume) was added to each cell pellet, along with about 50 μL of RNase A (Qiagen, Hilden, Germany) at a concentration of about 10 μg/mL. Cells were incubated at about 37° C. for about 20 minutes and sub-sequentially stored at 4° C. until analyzed by flow cytometry. Assays were performed in triplicate and reported as mean±S.E. (p value of ≤0.05 was considered to be significant).
On the technique in general: Flow cytometry measures light scatter and fluorescence of single cells or particles in a stream.

As to `NCCCC[C@H](N)C(=O)N[C@@H](Cc1ccccc1)CN(CC(=O)NCc1ccc(-c2ccccc2)cc1)C(=O)CC12CC3CC(CC(C3)C1)C2` [#43], in the assay with p-AKT (Ser473), the “expression of p-AKT (Ser473), immunoblot” value is listed as “significant decrease” and the “decrease in phosphorylated, active form of AKT (pAKT-Ser473)” value is ~30%. Besides, in the assay with p-P70 S6K (Thr389), the “reduction of phosphorylated, active form of P70S6K (p-P70S6K-Thr389) levels” value is given as “about 75%” and the “expression of p-P70 S6K (Thr389), immunoblot” value is on record as “significant decrease”. For the same molecule, the “phosphorylation status of the PTEN C-terminus (C-tail) cluster” value in assay [1] is listed as “did not appear to alter”. In addition, the A549 cell proliferation entry in the assay on A549 cells [2] was “reduced A549 cell proliferation in a dose dependent manner; also recorded: Dose-dependent inhibition”. In addition, the “wound closure efficiency (continuous impedance sensing)” value in the assay with A549 cells [3] (30 μM) is recorded as “decrease in wound closure efficiency”. Also, in the assay with A549 cells [3], the “cell migration (ECIS)” value is given as “inhibit cell migration”. In the assay with A549 cells [4] (40 μM, 24 hours), the G1 cell population entry was “increase”, the “G2 phase cell population” value is on record as “decreased” and the “S phase cell population” value was “decreased”. In addition, the cell cycle arrest entry in the assay with A549 cells [4] was “arrest cells in G1 phase”.

For the molecule `NCCCC[C@H](N)C(=O)N[C@@H](Cc1ccccc1)CN(CC(=O)N(Cc1cccc2ccccc12)Cc1cccc2ccccc12)C(=O)C[C@]12CC3C[C@H](C[C@H](C3)C1)C2` [#9], in the assay with p-AKT (Ser473), the “expression of p-AKT (Ser473), immunoblot” value is “significant decrease” and the “decrease in phosphorylated, active form of AKT (pAKT-Ser473)” value is recorded as “about 70%”. In the assay with p-P70 S6K (Thr389), the “reduction of phosphorylated, active form of P70S6K (p-P70S6K-Thr389) levels” value is “about 55%” and the “expression of p-P70 S6K (Thr389), immunoblot” value is reported as “significant decrease”. In assay [1], the “phosphorylation status of the PTEN C-terminus (C-tail) cluster” value is given as “did not appear to alter”. Further, in the assay with A549 cells [2], the A549 cell proliferation entry is “reduced A549 cell proliferation in a dose dependent manner; also recorded: Dose-dependent inhibition”. For the same molecule, in the assay with A549 cells [3] (20 μM), the “wound closure efficiency (continuous impedance sensing)” value is “decrease in wound closure efficiency”. Moreover, the “cell migration (ECIS)” value with A549 cells [3] is listed as “inhibit cell migration”. Moreover, in the assay on A549 cells [4] (20 μM, 24 hours), the G1 cell population result is given as “increase”, the “G2 phase cell population” value is on record as “increase” and the S phase population result is “decreased”. Moreover, the cell cycle arrest result in the assay with A549 cells [4] was “arrested the cell cycle in both G1 and G2 phases”.
